Assays:
[1] = Solubility of the product in solvents; type: physicochemical; conditions: free base (oily product)
souris Swiss = assay: Acute oral toxicity in mice (Lichfield and Wilcoxon method); type: in vivo; conditions: mortality over 7 days
Source text: La toxicité aiguë des composés de l'invention a été déterminée par voie orale chez les souris Swiss des deux sexes, par la méthode de Lichfield et Wilcoxon. Des groupes de cinq souris de chaque sexe ont été traités par des doses croissantes du composé étudié et le taux de mortalité a été déterminé au cours des 7 jours suivant l'administration du produit.
On a trouvé les doses léthales (DL₅₀ en mg/kg) suivantes : […]

[2] = in benzène, éthanol, acétone, chloroforme
[3] = in eau, n-hexane, éther isopropylique, éther éthylique

SMILES | solubilité [1, 2] | solubilité [1, 3] | DL₅₀ (souris Swiss; souris femelle) | DL₅₀ (souris Swiss; souris mâle)
Brc1ccc(C(Cn2ccnc2)c2ccccc2)cc1 (centres unmarked) [Exemple 1, 1-[2-(4-bromophényl)-2-phényléthyl]-1H-imidazole] | soluble | insoluble | 375 (350-400) mg/kg | 450 (400-475) mg/kg
Fc1ccc(C(Cn2ccnc2)c2ccccc2)cc1 (centres unmarked) [Exemple 2, 1-[2-(4-fluorophényl)-2-phényl éthyl]-1H-imidazole] | soluble | insoluble | 465 (438-502) mg/kg | 524 (457-538) mg/kg

Reference: patent publication EP0276583A1, “Imidazole derivatives, processes for their preparation and their fungicidal properties” (Instituto de Investigacion Y Desarrollo Quimico Biologico …, priority 1987, dated 1988)
